We go through 4 molecules from patent US20040242679A1, “Methods and compositions for potentiating cancer chemotherapeutic agents” (priority 2002, published 2004).

The test system of test [1] is normal human liver (WRL 68). In words: Cell death detection ELISA (histone-DNA complexes), normal liver cells. The test is classed as cell-based. As to conditions: 0.01-0.0001% furanone, three sequential treatments. On the procedure: (§1) Four human tumor cell types, shown previously to be sensitive to combinations of mineral ascorbate plus metabolites are evaluated. These lines consist of: (i) a liver hepatoma (SK-Hep-1), (ii) a malignant melanoma (Malme-3M), (iii) a neurobastoma (SK-N-MC) and (iv) a colon carcinoma (T84). Non-malignant cell types consist of: normal human liver (WRL 68), normal skin fibroblasts (Malme-3) and normal retinal epithelial cells (ARPE-19). The tumor-derived lines, normal liver and skin fibroblasts are obtained from the American Type Culture Collection (ATCC). The ARPE-19 cell line is a gift from a colleague at California Institute for Medical Research. Cells are grown and maintained in culture, in a humidified incubator of 5% CO2/95% air. […]
(§2) Subconfluent monolayers of 1-2 old, adherent cultures (seeded at a density of 10,000 cells per well in a 96-well plate) are exposed to 0.1 volume of serial dilutions (10× concentrated solutions) of the furanone and the plate is returned to the incubator. […] The supernatant (cytoplasmic lysate) is saved and in aliquot (20 microliters) was assayed for the presence of histone-DNA complexes (nucleosomal fragments) by photometric detection (absorbance at 405-410 nm) using cell death detection Elisa assay (Roche Diagnostics).

In test [2] the test system is liver hepatoma (SK-Hep-1). Put plainly: Cell death detection ELISA, hepatoma cells. The test is classed as cell-based, human. Here is the method:
as §1, §2
For orientation: ELISA stands for enzyme-linked immunosorbent assay.

For test [3], the system named is malignant melanoma (Malme-3M). In words: Cell death detection ELISA, melanoma cells. The test is classed as cell-based, human. Here is the method: as §1, §2
For test [4], the system named is normal skin fibroblasts (Malme-3). In words: Cell death detection ELISA, normal skin fibroblasts. The test is classed as cell-based, human. As to conditions: two furanone preparations. On the procedure:
as §1, §2

Test [5] has as its system colon carcinoma (T84). Put plainly: Cell death detection ELISA, colon carcinoma cells. The class given is cell-based, human. As to conditions: up to a max. of 0.01% furanone. Here is the method: as §1, §2
For test [6], the system named is normal retinal epithelial cells (ARPE-19). Put plainly: Cell death detection ELISA, normal retinal epithelial cells. The test is classed as cell-based, human. The conditions noted are these: up to max of 0.003% furanone. On the procedure:
as §1, §2

Test [7] concerns neurobastoma (SK-N-MC). Put plainly: Cell death detection ELISA, neuroblastoma cells. The test is classed as cell-based, human. The conditions noted are these: up to max of 0.001% furanone. On the procedure: as §1, §2
Test [8] deals with SK-Hep-1, a liver adenocarcinoma (hepatoma). In words: Cell Proliferation ELISA, BudR (colorimetric), hepatoma cells. The test is classed as cell-based, human. The conditions noted are these: for inhibition of hepatoma proliferation, single agent: ADR 0.02-0.33 micromoles, furanone 0.001-0.01% compared at same absolute concentration; for suppression of hepatoma proliferation, adjuvant combined with ADR: adjuvant 0.5 mM AA equivalents, one application of ADR, two of adjuvant, prominent at ADR 0.003-0.03 micromolar. The text has this: (§3) Calcium ascorbate (CA), calcium threonate (CT), 4-hydroxy-5-methyl-3(2H)-furanone (FR) and Ester-C (EC) are obtained from Inter-Cal Corporation, Prescott, Ariz., USA. Tissue culture grade Ascorbic acid (AA) is from Sigma Chemical Company, St. Louis, Mo., USA. The composition of calcium ascorbate (calcium di-(L-ascorbate) dihydrate) is made by sequentially dissolving the salt in sterile water to obtain master-stock solutions of equal strength (1% w/v). Aqueous solution of calcium ascorbate plus calcium threonate plus 4-hydroxy-5-methyl-3(2H)-furanone (CA/CT/FR) is prepared at ratio of 85/7.5/7.5. For comparative analysis, stock solutions containing identical ascorbic acid (AA) equivalents are used. All master stocks are stored at room temperature during the course of these procedures. From these, 10× strength working stocks are prepared by serial dilution on the day of use and are applied to cells in microtiter plates as described below.
Adriamycin (doxorubicin) is obtained from Sigma Chemical Company (St. Louis, Mo.). Stock solutions are made by dissolving adriamycin (ADR) in sterile water and DTIC in water or dilute acetic acid solution (0.01N). Stocks are stored frozen at −10 C. and thawed prior to use. Serial dilutions are made in sterile water to obtain 10× strength solutions and one tenth volume of this is applied to cells at the time of treatment.
Target human tumor-derived lines consist of SK-Hep-1, a liver adenocarcinoma ([…]) and Malme-3M, a malignant melanoma. All seed cultures are obtained from ATCC, Manassas, Va., USA and are propagated/maintained in serum-containing growth medium in a humidified incubator of 5% CO2/95% air. SK-Hep-1 cells are grown in Eagle's minimum essential medium (EMEM) in Earle's salts plus non-essential amino acids supplemented with 10% FBS plus antibiotics and Malme-3M cells are cultured in McCoy's medium supplemented with 15% fetal bovine serum (FBS) plus antibiotics.
For treatment, exponentially growing cells are seeded at a density of 1×10^4 cells per well of 96-well microtiter plate in 0.1-0.2 ml of growth medium. After overnight cell attachment at 37 C., duplicate wells are exposed to various treatments by direct application of one-tenth volume of 10× strength solution. For treatments involving chemotherapeutic agent, one-tenth volume of serial dilutions of adriamycin (0.0006-3.0 micromolar) are applied to wells followed by application of ascorbate-containing composition (adjuvant) or sterile water (control). The adjuvant treatment is repeated every other day or on the third day (as applicable) without change of growth medium. Untreated controls receive an equivalent amount of sterile water. After 2-3 treatments with adjuvant, cells are labeled with BudR as described below. (In some experiments, wells are refed an equal volume of growth medium prior to additional of BudR. This gives a higher amount of BrdU incorporation into DNA relative to no refluiding).
For DNA labeling, the following procedure is adapted and modified from the Cell Proliferation ELISA, BudR (Colorimetric) assay of Roche Diagnostics, Indianapolis, Ind., USA: Each treated well is exposed to one-tenth volume of 10× BrdU-containing medium and reincubated at 37 C. overnight (15-20 hrs.). One set of control wells is exposed to medium only (no BudR) to obtain an absorbance-control (substrate only) blank for the assay. After the labeling period, the culture medium is removed and the cells are fixed and DNA denatured in one step by adding FixDenat (30 min at RT). Then, FixDenat is removed, the anti-BrdU-peroxidase reagent is added and incubation continues for 90 min at RT. After removal of the latter, the plate is washed 3 times, followed by addition of substrate solution. The plate is kept at RT until color development became sufficient for photometric detection ([…]). At this time, reaction is stopped by addition to each well of 25 microliter 1M sulfuric acid followed by mixing for approximately 1 min on the shaker. […]

Test [9] relates to Malme-3M, a malignant melanoma. In words: Cell Proliferation ELISA, BudR (colorimetric), melanoma cells. The class given is cell-based, human. As to conditions: furanone at 0.1% as printed; FIG. 21.
Description: as §3, with “below. […]” for “below.”
For DNA labeling, the following procedure is adapted and modified from the Cell Proliferation ELISA, BudR (Colorimetric) assay of Roche Diagnostics, Indianapolis, Ind., USA: Each treated well is exposed to one-tenth volume of 10× BrdU-containing medium and reincubated at 37 C. overnight (15-20 hrs.). One set of control wells is exposed to medium only (no BudR) to obtain an absorbance-control (substrate only) blank for the assay. […]

Bounds are passed on as bounds.

`CC1=C(O)C(=O)CO1` [furanone, 4-hydroxy-5-methyl-3(2H)-furanone]: the “maximal change in cell-death rate” value in test [1] is listed as “less than 0.3 logs”. For the same molecule, the “cell death in hepatoma cells” value in [2] (furanone 0.001-0.01% (0.08-0.88 mM), three sequential treatments) is given as “sharp rises in cell death”. Moreover, the “minimal concentration required to produce 2-fold change in apoptosis rate” value in [2] (hepatoma cells) is below 0.001%; in [3] it was 0.003%. The increase in apoptosis in [4] is recorded as below 0.3 log. Also, the “change in rate of cellular apoptosis over untreated control” value in test [5] is below 0.5 log. The “change in death rates” value in test [6] and in test [7] was “does not elicit significant changes in death rates” each time. In addition, the “reduction in cellular DNA synthesis compared to untreated control” value in test [8] (0.01% furanone alone) was around 4.6 fold. Further, the “enhancement of the inhibitory effect of ADR” value in [8] (ADR 0.007 micromolar, adjuvant 0.01%) turned out to be 7 fold. Also, in [8], the “inhibition of hepatoma proliferation, single agent” value is “more effective in inhibiting hepatoma proliferation than either the triple ascorbate/metabolite mix or Ester-C®”. Further, the “minimal dose of furanone required to produce 2-fold enhancement of ADR inhibition” value in test [8] (two independent experiments) was around 0.0016%. In addition, the “enhancement of the inhibitory effect of ADR in melanoma cells” value in test [9] was “consistently enhances the inhibitory effect of ADR at all concentrations of the chemotherapeutic drug”.

`COc1cccc2c1C(=O)c1c(O)c3c(c(O)c1C2=O)C[C@@](O)(C(=O)CO)C[C@@H]3O[C@H]1C[C@H](N)[C@H](O)[C@H](C)O1` [ADR, Adriamycin (doxorubicin), reference compound]: the “inhibition of hepatoma proliferation, single agent” value in [8] is “dose-dependent inhibition of hepatoma proliferation”.

For `O=C1O[C@H]([C@@H](O)CO)C(O)=C1O` [AA, Ascorbic acid, reference compound], the “suppression of hepatoma proliferation, adjuvant combined with ADR” value in test [8] is recorded as “greater suppression of hepatoma proliferation than ADR alone”.

Regarding calcium di-(L-ascorbate) dihydrate, the “improvement of anti-proliferation activity of ADR” value in [8] (0.033% adjuvant, low doses of ADR) is on record as “consistently improve the anti-proliferation activity of low doses of ADR”. For the same molecule, the “suppression of hepatoma proliferation, adjuvant combined with ADR” value is listed as “greater suppression of hepatoma proliferation than ADR alone” in test [8] (dihydrate) and “more effective than ascorbic acid” in test [8] (listed as Calcium ascorbate, dihydrate).
